Where two headings read alike, the source gives them in different places.
Key:
Format in all cases: binding
[1] = tested on: SARS-CoV-2 gRNA and sgRNAs; settings: for target (unweighted spectral count in RNP capture): Probe II capture, LC-MS/MS LFQ; for background (unweighted spectral count in control): no-probe control pull-down, used as background for Probe II; for target (unweighted spectral count of the protein in the RNP capture experiment): LC-MS/MS label-free quantification, probe pool not given; for back-ground (unweighted spectral count of the protein in the control experiment): protein background of the control (e.g. no-probe) experiment
gRNA of HCoV-OC43 = settings: for target (spectral count) / background (spectral count): type g_36_m, 36 hpi, Probe I; for target (spectral count): HCoV-OC43-infected HCT-8 cells; for background (spectral count): uninfected-probe control
HCoV-OC43 gRNA and sgRNA = settings: for target (unweighted spectral count): OC43 Probe II, infected cells; for target (spectral count) / background (spectral count): type s_36_m, Probe II; for target (spectral count): HCoV-OC43-infected HCT-8 cells; for background (spectral count): uninfected-probe control
SARS-CoV-2 gRNA = settings: for target (unweighted spectral count of the protein in the RNP capture): LC-MS/MS, Probe I sample (first 199 lines of Table 2); for target (unweighted spectral count in RNP capture): Probe I capture, LC-MS/MS LFQ; for background (unweighted spectral count in control): no-probe control pull-down, used as background for Probe I
[2] = 36 hpi, type n_36_v, tested against no-probe control, FDR<10%
[3] = 12 hpi (type n_12_v), tested against no-probe control
[4] = 24 hpi, type n_24_v, tested against no-probe control, FDR<10%
[5] = type n_48_v, 48 hpi, OC43 Probe II capture on infected cells
[6] = type n_48_v, 48 hpi, no-probe control on infected cells
[7] = type n_48_v: 48 hours post-infection, infected cells, OC43 Probe I, unweighted spectral count
[8] = type n_48_v: 48 hours post-infection, no-probe control on infected cells
[9] = 24 hpi (type n_24_v), tested against no-probe control

GAPDH
target (unweighted spectral count in RNP capture) [1]: 12
background (unweighted spectral count in control) [1]: 1

SRSF1
background (spectral count, no-probe control) (gRNA of HCoV-OC43): 1
target (spectral count, OC43 Probe I RNP capture) (gRNA of HCoV-OC43): 17
target (unweighted spectral count in RNP capture) [1]: 8
background (unweighted spectral count in control) [1]: 1
background (unweighted spectral count, no-probe control) (HCoV-OC43 gRNA and sgRNA): 1
target (unweighted spectral count, OC43 Probe II capture) (HCoV-OC43 gRNA and sgRNA): 14
target (unweighted spectral count, OC43 Probe II) (HCoV-OC43 gRNA and sgRNA): 20

KHORBS1
target (unweighted spectral count of the protein in the RNP capture) (SARS-CoV-2 gRNA): 19

TCP1
target (unweighted spectral count, OC43 Probe II capture) (HCoV-OC43 gRNA and sgRNA; [2]): 4

H2AFY
target (unweighted spectral count) (HCoV-OC43 gRNA and sgRNA; [3]): 4

NUMA1
target (unweighted spectral count) (HCoV-OC43 gRNA and sgRNA; [3]): 5

HSPB1
target (unweighted spectral count in RNP capture) (SARS-CoV-2 gRNA): 5
background (unweighted spectral count in control) (SARS-CoV-2 gRNA): 1

EIF4G1: host protein, UniProt Q04637
target (unweighted spectral count in RNP capture) [1]: 18
background (unweighted spectral count in control) [1]: 1
target (unweighted spectral count, OC43 Probe II capture) (HCoV-OC43 gRNA and sgRNA; [4]): 4
target (unweighted spectral count, OC43 Probe II capture) (HCoV-OC43 gRNA and sgRNA; [2]): 7
target (spectral count) (HCoV-OC43 gRNA and sgRNA; 36 hpi): 7
background (spectral count) (HCoV-OC43 gRNA and sgRNA; 36 hpi): 1

LARP4
target (unweighted spectral count in RNP capture) [1]: 10
background (unweighted spectral count in control) [1]: 1
target (unweighted spectral count, OC43 Probe II capture) (HCoV-OC43 gRNA and sgRNA; [2]): 4

YP_009725304.1
target (unweighted spectral count in RNP capture) (SARS-CoV-2 gRNA): 5
background (unweighted spectral count in control) (SARS-CoV-2 gRNA): 1

SNRNP70: host protein, UniProt P08621
target (spectral count) (gRNA of HCoV-OC43): 9
background (spectral count) (gRNA of HCoV-OC43): 1
target (unweighted spectral count, OC43 Probe II) (HCoV-OC43 gRNA and sgRNA; [5]): 8
background (unweighted spectral count, no-probe control) (HCoV-OC43 gRNA and sgRNA; [6]): 2

PRRC2A: host protein, UniProt P48634
target (spectral count) (gRNA of HCoV-OC43): 12
background (spectral count) (gRNA of HCoV-OC43): 1
target (spectral count, OC43 Probe I RNP capture) (gRNA of HCoV-OC43; [7]): 9
background (spectral count, no-probe control) (gRNA of HCoV-OC43; [8]): 1
target (unweighted spectral count, OC43 Probe II capture) (HCoV-OC43 gRNA and sgRNA; [2]): 10
target (unweighted spectral count) (HCoV-OC43 gRNA and sgRNA; [9]): 8
target (unweighted spectral count, OC43 Probe II) (HCoV-OC43 gRNA and sgRNA; [5]): 9
background (unweighted spectral count, no-probe control) (HCoV-OC43 gRNA and sgRNA; [6]): 1

MYH9
target (unweighted spectral count of the protein in the RNP capture experiment) [1]: 9
back-ground (unweighted spectral count of the protein in the control experiment) [1]: 2
target (unweighted spectral count, OC43 Probe II capture) (HCoV-OC43 gRNA and sgRNA; [4]): 6
target (unweighted spectral count, OC43 Probe II) (HCoV-OC43 gRNA and sgRNA; [5]): 9
background (unweighted spectral count, no-probe control) (HCoV-OC43 gRNA and sgRNA; [6]): 1

RBPMS
target (unweighted spectral count of the protein in the RNP capture experiment) [1]: 5
back-ground (unweighted spectral count of the protein in the control experiment) [1]: 1

KRT16
target (unweighted spectral count) (HCoV-OC43 gRNA and sgRNA; [9]): 22

PPP1CA
target (unweighted spectral count, OC43 Probe II capture) (HCoV-OC43 gRNA and sgRNA; [2]): 4

KHDR ? S1
target (spectral count, OC43 Probe I RNP capture) (gRNA of HCoV-OC43; [7]): 18
background (spectral count, no-probe control) (gRNA of HCoV-OC43; [8]): 1

SSRP1
target (unweighted spectral count, OC43 Probe II capture) (HCoV-OC43 gRNA and sgRNA; [4]): 4

MPG
target (unweighted spectral count) (HCoV-OC43 gRNA and sgRNA; [3]): 4

C19orf66
target (unweighted spectral count, OC43 Probe II capture) (HCoV-OC43 gRNA and sgRNA; [2]): 4
target (unweighted spectral count, OC43 Probe II) (HCoV-OC43 gRNA and sgRNA; [5]): 6
background (unweighted spectral count, no-probe control) (HCoV-OC43 gRNA and sgRNA; [6]): 1

HELZ2: host protein, UniProt Q9BYK8
target (spectral count) (gRNA of HCoV-OC43): 11
background (spectral count) (gRNA of HCoV-OC43): 1
target (spectral count, OC43 Probe I RNP capture) (gRNA of HCoV-OC43; [7]): 8
background (spectral count, no-probe control) (gRNA of HCoV-OC43; [8]): 1
target (unweighted spectral count, OC43 Probe II capture) (HCoV-OC43 gRNA and sgRNA; [2]): 16
target (unweighted spectral count, OC43 Probe II) (HCoV-OC43 gRNA and sgRNA; [5]): 20
background (unweighted spectral count, no-probe control) (HCoV-OC43 gRNA and sgRNA; [6]): 1
target (spectral count) (HCoV-OC43 gRNA and sgRNA; 36 hpi): 16
background (spectral count) (HCoV-OC43 gRNA and sgRNA; 36 hpi): 1

RPL22L1
target (unweighted spectral count of the protein in the RNP capture) (SARS-CoV-2 gRNA): 8
target (unweighted spectral count) (HCoV-OC43 gRNA and sgRNA; [3]): 5

YBX2: host protein, UniProt Q9Y2T7
target (unweighted spectral count, OC43 Probe II capture) (HCoV-OC43 gRNA and sgRNA; [2]): 9
target (unweighted spectral count, OC43 Probe II) (HCoV-OC43 gRNA and sgRNA; [5]): 8
background (unweighted spectral count, no-probe control) (HCoV-OC43 gRNA and sgRNA; [6]): 1
target (spectral count) (HCoV-OC43 gRNA and sgRNA; 36 hpi): 9
background (spectral count) (HCoV-OC43 gRNA and sgRNA; 36 hpi): 1

HSPA1B
target (unweighted spectral count, OC43 Probe II capture) (HCoV-OC43 gRNA and sgRNA; [2]): 4

RP22L1
target (unweighted spectral count in RNP capture) [1]: 7
background (unweighted spectral count in control) [1]: 1

USP10
target (spectral count, OC43 Probe I RNP capture) (gRNA of HCoV-OC43; [7]): 6
background (spectral count, no-probe control) (gRNA of HCoV-OC43; [8]): 1
target (unweighted spectral count, OC43 Probe II capture) (HCoV-OC43 gRNA and sgRNA; [4]): 5
target (unweighted spectral count, OC43 Probe II capture) (HCoV-OC43 gRNA and sgRNA; [2]): 4
target (unweighted spectral count, OC43 Probe II) (HCoV-OC43 gRNA and sgRNA; [5]): 7
background (unweighted spectral count, no-probe control) (HCoV-OC43 gRNA and sgRNA; [6]): 1

KHDRB51
target (unweighted spectral count in RNP capture) [1]: 13
background (unweighted spectral count in control) [1]: 1

ENO1
target (unweighted spectral count in RNP capture) [1]: 22
background (unweighted spectral count in control) [1]: 4

PLEC
target (unweighted spectral count, OC43 Probe II) (HCoV-OC43 gRNA and sgRNA; [5]): 6
background (unweighted spectral count, no-probe control) (HCoV-OC43 gRNA and sgRNA; [6]): 1
